Patent US20210317099A1, “SAFER, POTENT, AND FAST ACTING ANTIMICROBIAL AGENTS” (Purdue Research Foundation, priority 2020, published 2021)
In brackets after ≈: the same amount, converted by molar mass.

test system: Staphylococcus aureus NRS384 (MRSA USA300); experiment: Initial MIC screening, broth microdilution (CLSI); assay type: cell-based; conditions: MRSA USA300, Table 1 assay
Experimental: Method: The minimum inhibitory concentration (MIC) of the compounds 1-187, and control antibiotics (vancomycin, linezolid) was determined using the broth microdilution method against methicillin-resistant Staphylococcus aureus (MRSA) USA 300 using the broth microdilution method according to the guidelines outlined by the Clinical and Laboratory Standards Institute (CLSI). MRSA strain was cultivated on Tryptic soy agar plates and let grow for 24 hours at 37° C. under aerobic conditions. Bacterial suspension equivalent to 0.5 McFarland standard was prepared and diluted in cation-adjusted Mueller-Hinton broth (CAMHB) to attain a bacterial concentration of 5×10^5 CFU/ml and seeded in 96-well plates. The desired concentrations of each drug and compound were added in the first row of the 96-well plates and serially diluted to achieve a concentration gradient from 64 μg/ml to 0.5 μg/mL.

| Compound | potency compared with control antibiotic |
| --- | --- |
| O=C1O[C@H](c2ccc3ccccc3c2)[C@H](c2ccc3ccccc3c2)C1CN1CCCCC1 (stereo partly shown) [Compound 167] | potency comparable to vancomycin |

same assay, conditions: Staphylococcus aureus NRS384 (MRSA USA300), broth microdilution, visual reading

| Compound | MIC |
| --- | --- |
| C=C1C(=O)O[C@H](c2ccc(OC)cc2)[C@@H]1c1ccc(OC)cc1 [Compound 68] | 64 µg/mL (≈ 206 µM) |
| C=C1C(=O)O[C@H](c2ccccc2)[C@@H]1c1ccc2ccccc2c1 [Compound 107] | 8 µg/mL (≈ 26.6 µM) |
| C=C1C(=O)O[C@H](c2ccccc2)[C@@H]1c1ccc2ccccc2c1 [Compound 152] | 8 µg/mL (≈ 26.6 µM) |
| C=C1C(=O)O[C@H](c2ccc3ccccc3c2)[C@@H]1c1ccccc1 [Compound 21] | 32 µg/mL (≈ 107 µM) |
| C=C1C(=O)O[C@H](c2ccccc2)[C@@H]1c1ccc2ccccc2c1 [Compound 112] | 64 µg/mL (≈ 213 µM) |
| C=C1C(=O)O[C@H](c2ccccc2)[C@@H]1c1ccccc1 [Compound 150] | 16 µg/mL (≈ 63.9 µM) |
| C=C1C(=O)O[C@H](c2ccnc3ccccc23)[C@H]1c1ccccc1 [Compound 120] | 128 µg/mL (≈ 425 µM) |
| C=C1C(=O)O[C@H](c2ccccc2)[C@@H]1c1ccc2ccccc2c1 [Compound 109] | ≤1 µg/mL |

same assay, conditions: Staphylococcus aureus, Staphylococcus aureus NRS384 (MRSA USA300), broth microdilution, visual reading; read-out: MIC

| Compound | MIC |
| --- | --- |
| C=C1C(=O)O[C@H](c2ccc3ccccc3c2)[C@@H]1c1ccccc1 [Compound 156] | 16 µg/mL (≈ 53.3 µM) |
| C=C(C(=O)OC)C(c1ccccc1)C(O)c1ccccc1 (stereo not shown) [Compound 141] | 16 µg/mL (≈ 56.7 µM) |
| C=C1C(=O)O[C@H](c2ccc(OC)cc2)[C@@H]1c1ccc(C)cc1 [Compound 74] | 16 µg/mL (≈ 54.4 µM) |
| C=C1C(=O)O[C@H](c2cc(OC)c(OC)c(OC)c2)[C@@H]1c1ccc(C#N)cc1 [Compound 54] | 128 µg/mL (≈ 350 µM) |
| C=C1C(=O)O[C@H](c2ccc(C#N)cc2)[C@@H]1c1ccccc1 [Compound 39] | 64 µg/mL (≈ 232 µM) |
| C=C1C(=O)O[C@H](c2ccc(OC)cc2)[C@@H]1c1ccc(Br)cc1 [Compound 2] | 8 µg/mL (≈ 22.3 µM) |
| C=C1C(=O)O[C@H](c2ccc(OCc3ccccc3)c(OC(C)=O)c2)[C@@H]1c1ccccc1Br [Compound 56] | > 128 µg/mL |
| C=C1C(=O)O[C@H](c2ccccc2OC)[C@@H]1c1ccccc1Br [Compound 40] | 16 µg/mL (≈ 44.5 µM) |
| C=C1C(=O)O[C@H](c2ccc(OC)cc2)[C@@H]1c1ccccc1 [Compound 75] | 64 µg/mL (≈ 228 µM) |
| C=C1C(=O)O[C@H](c2ccc(C(F)(F)F)cc2)[C@@H]1c1cccc(Br)c1 [Compound 88] | 16 µg/mL (≈ 40.3 µM) |
| C=C1C(=O)O[C@H](C2CCCCC2)[C@@H]1c1ccc(C)cc1 [Compound 93] | > 128 µg/mL |
| C=C1C(=O)O[C@H](c2cnc3ccccc3c2)[C@H]1c1ccccc1 [Compound 99] | 32 µg/mL (≈ 106 µM) |
| O=C1O[C@H](c2ccccc2)[C@H](c2ccc3ccccc3c2)C1CN1CCCCC1 (stereo partly shown) [Compound 161] | 16 µg/mL (≈ 41.5 µM) |
| COc1ccc([C@@H]2C(CN3CCCCC3)C(=O)O[C@@H]2c2ccc(C)cc2)cc1 (stereo partly shown) [Compound 35] | 64 µg/mL (≈ 169 µM) |
| CCN(CC)CC1C(=O)O[C@H](c2ccc3ccccc3c2)[C@H]1c1ccccc1 (stereo partly shown) [Compound 95] | > 128 µg/mL |
| O=C1OC2(CCCC2)CC1CN1CCCCC1 (stereo not shown) [Compound 58] | > 128 µg/mL |
| CN(C)C[C@@H]1C(=O)O[C@H](c2ccccc2)[C@@H]1c1ccccc1 [Compound 5] | 16 µg/mL (≈ 54.2 µM) |
| N#Cc1ccc([C@H]2COC(=O)C2CN2CCCCC2)cc1 (stereo partly shown) [Compound 28] | > 128 µg/mL |
| O=C1O[C@H](c2cccc3ccccc23)[C@H](c2ccccc2)C1CN1CCCCC1 (stereo partly shown) [Compound 162] | 8 µg/mL (≈ 20.8 µM) |
| C=C1C(=O)O[C@H](C2CCCCC2)[C@@H]1c1ccccc1 [Compound 106] | > 128 µg/mL |
| C=C1C(=O)O[C@H](c2cccc(OC)c2)[C@@H]1c1ccccc1Br [Compound 55] | 8 µg/mL (≈ 22.3 µM) |
| C=C1C(=O)O[C@H](c2cccc(OC)c2)[C@@H]1c1ccc(C#N)cc1 [Compound 19] | 64 µg/mL (≈ 210 µM) |
| C=C1C(=O)O[C@H](c2ccc(C)cc2)[C@@H]1c1ccccc1 [Compound 71] | 32 µg/mL (≈ 121 µM) |
| COc1ccc([C@H]2OC(=O)[C@@H](CN(C)C)[C@H]2c2ccccc2)cc1 [Compound 8] | > 256 µg/mL |
| C=C1C(=O)O[C@H](c2ccnc3ncccc23)[C@H]1c1ccccc1 [Compound 121] | 32 µg/mL (≈ 106 µM) |

| Compound | MIC |
| --- | --- |
| C=C1C(=O)O[C@H](c2ccc(C#N)cc2)[C@@H]1c1ccc(C)cc1 [Compound 37] | 16 µg/mL (≈ 55.3 µM) |
| COc1ccc([C@H]2OC(=O)C(CN(C)C)[C@H]2c2ccc(C#N)cc2)cc1 (stereo partly shown) [Compound 15] | > 128 µg/mL |
| CC(=O)Oc1cc([C@H]2OC(=O)C(CN3CCOCC3)[C@H]2c2ccccc2Br)ccc1OCc1ccccc1 (stereo partly shown) [Compound 57] | > 128 µg/mL |
| O=C1O[C@H](c2ccc3ccccc3c2)[C@H](c2ccc3ccccc3c2)C1CN1CCCCC1 (stereo partly shown) [Compound 167] | 2 µg/mL (≈ 4.59 µM) |
| C=C1C(=O)O[C@H](c2ccc(C)cc2)[C@@H]1c1ccc(C)cc1 [Compound 67] | 64 µg/mL (≈ 230 µM) |
| CN(C)CC1C(=O)O[C@H](c2cccc3ccccc23)[C@@H]1c1ccc2ccccc2c1 (stereo partly shown) [Compound 169] | 4 µg/mL (≈ 10.1 µM) |
| C=C1C(=O)O[C@H](c2ccccc2)[C@@H]1c1ccc(C#N)cc1 [Compound 69] | > 128 µg/mL |
| C=C1C(=O)O[C@H](c2ccccc2O)[C@@H]1c1cccc(C#N)c1 [Compound 50] | > 128 µg/mL |
| O=C1O[C@H](C2CCCCC2)C[C@@H]1CN1CCCCC1 [Compound 47] | > 128 µg/mL |
| C=C1C(=O)O[C@H](c2ccc(OCc3ccccc3)c(OC)c2)[C@@H]1c1ccccc1Br [Compound 85] | > 128 µg/mL |
| C=C(C(=O)OC)C(c1ccc2ccccc2c1)C(O)c1ccccc1 (stereo not shown) [Compound 147] | 8 µg/mL (≈ 24.1 µM) |
| C=C1C(=O)O[C@H](c2cccc(C#N)c2)[C@@H]1c1ccc(OC)cc1 [Compound 20] | 16 µg/mL (≈ 52.4 µM) |
| CCC[C@@H]1[C@H](CN2CCCCC2)C(=O)O[C@H]1c1ccc(SC)cc1 [Compound 45] | > 128 µg/mL |
| COc1cc([C@H]2OC(=O)C(CN3CCCCC3)[C@H]2c2ccccc2Br)ccc1OCc1ccccc1 (stereo partly shown) [Compound 27] | > 128 µg/mL |
| C=C1C(=O)O[C@H](c2ccccc2Br)[C@@H]1c1ccc(C#N)cc1 [Compound 12] | 4 µg/mL (≈ 11.3 µM) |
| C=C1C(=O)O[C@H](c2ccccc2)[C@@H]1c1ccc(C)cc1 [Compound 64] | 32 µg/mL (≈ 121 µM) |
| CCC[C@H]1COC(=O)C1CN1CCCCC1 (stereo partly shown) [Compound 41] | > 128 µg/mL |
| C=C1C(=O)O[C@H](CCO[Si](c2ccccc2)(c2ccccc2)C(C)(C)C)[C@@H]1c1ccc(C)cc1 [Compound 52] | > 128 µg/mL |
| C/C=C/[C@H]1OC(=O)C(CN2CCCCC2)[C@H]1c1ccc(Br)cc1 (stereo partly shown) [Compound 29] | 16 µg/mL (≈ 42.3 µM) |
| C=C1C(=O)O[C@H](c2ccc(N(C)C)cc2)[C@@H]1c1ccccc1 [Compound 98] | > 128 µg/mL |
| CCCCC[C@@H]1CC(CN2CCCCC2)C(=O)O1 (stereo partly shown) [Compound 26] | > 128 µg/mL |
| O=C1OC[C@H](c2ccco2)C1CN1CCCCC1 (stereo partly shown) [Compound 76] | > 128 µg/mL |
| C=C1C(=O)O[C@H](c2cc3ccccc3cn2)[C@@H]1C [Compound 105] | 16 µg/mL (≈ 66.9 µM) |
| CCN(CC)CC1C(=O)O[C@H](c2ccc3ccccc3c2)[C@@H]1c1ccccc1 (stereo partly shown) [Compound 96] | > 128 µg/mL |
| C=C1C(=O)O[C@H](c2ccc([N+](=O)[O-])cc2)[C@@H]1C [Compound 102] | > 128 µg/mL |

| Compound | MIC |
| --- | --- |
| C=C(C(=O)OC)C(c1ccccc1)C(O)c1ccc2ccccc2c1 (stereo not shown) [Compound 143] | 16 µg/mL (≈ 48.1 µM) |
| C=C1C(=O)O[C@H](c2c(F)cccc2F)[C@@H]1c1ccccc1 [Compound 100] | 8 µg/mL (≈ 27.9 µM) |
| C=C1C(=O)O[C@H](c2cccc(Br)c2)[C@@H]1c1ccc(C#N)cc1 [Compound 1] | 8 µg/mL (≈ 22.6 µM) |
| O=C1OC(C2CCCCC2)[C@H](c2ccccc2)C1CN1CCCCC1 (stereo partly shown) [Compound 182] | 32 µg/mL (≈ 93.7 µM) |
| C=C1C(=O)O[C@H](c2ccccc2OC)[C@@H]1c1ccc(C(F)(F)F)cc1 [Compound 77] | 8 µg/mL (≈ 23 µM) |
| C=C1C(=O)O[C@H](c2cccc(F)c2F)[C@H]1c1ccccc1 [Compound 10] | 16 µg/mL (≈ 55.9 µM) |
| C=C1C(=O)O[C@H](c2ccccc2)[C@@H]1c1ccccc1 [Compound 103] | 32 µg/mL (≈ 128 µM) |
| C[C@@]1(c2ccccc2)CC(CN2CCCCC2)C(=O)O1 (stereo partly shown) [Compound 33] | > 128 µg/mL |
| C=C1C(=O)O[C@H](/C=C/C)[C@@H]1c1ccc(Br)cc1 [Compound 59] | 32 µg/mL (≈ 109 µM) |
| C=C1C(=O)O[C@H](c2ccnc3ccccc23)[C@@H]1c1ccccc1 [Compound 114] | 32 µg/mL (≈ 106 µM) |
| COc1ccc([C@H]2OC(=O)[C@@H](CN(C)C)[C@H]2c2ccc(C)cc2)cc1 [Compound 7] | 32 µg/mL (≈ 94.3 µM) |
| C=C1C(=O)O[C@H](c2ccc(OC)cc2)[C@@H]1c1cccc(Br)c1 [Compound 3] | 8 µg/mL (≈ 22.3 µM) |
| C=C1C(=O)O[C@H](c2cc(OC)c(OC)c(OC)c2)[C@@H]1c1ccc(C(F)(F)F)cc1 [Compound 92] | 32 µg/mL (≈ 78.4 µM) |
| C=C1C(=O)O[C@H](c2ccc(OC)cc2)[C@@H]1C [Compound 117] | > 128 µg/mL |
| COc1ccc([C@@H]2C(CN(C)C)C(=O)O[C@@H]2c2ccccc2)cc1 (stereo partly shown) [Compound 17] | 64 µg/mL (≈ 197 µM) |
| C=C1C(=O)O[C@H](c2ccc3ccccc3c2)[C@@H]1c1cccc2ccccc12 [Compound 157] | > 64 µg/mL |
| Cc1ccc([C@@H]2[C@H](CN(C)C)C(=O)O[C@@H]2c2ccc(C)cc2)cc1 [Compound 6] | 32 µg/mL (≈ 98.9 µM) |
| Cc1ccc([C@@H]2C(S3=NCCS3)C(=O)O[C@@H]2C2CCCCC2)cc1 (stereo partly shown) [Compound 91] | > 128 µg/mL |
| C=C1C(=O)O[C@H](c2ccccc2OC)[C@@H]1c1ccc(C#N)cc1 [Compound 42] | 32 µg/mL (≈ 105 µM) |
| C=C1C(=O)O[C@H](c2ccccc2)[C@@H]1C [Compound 97] | 16 µg/mL (≈ 85 µM) |
| C=C1C(=O)O[C@H]2[C@H]1CC/C(C)=C/CC[C@@]1(C)O[C@@H]21 [Compound 125, Parthenolide, reference compound] | 128 µg/mL (≈ 515 µM) |
| O=C1O[C@H](c2ccc3ccccc3c2)CC1CN1CCCCC1 (stereo partly shown) [Compound 31] | > 128 µg/mL |
| C=C1C(=O)O[C@H](c2c(OC)cc(OC)cc2OC)[C@@H]1c1ccc(C#N)cc1 [Compound 44] | > 128 µg/mL |
